# Source: the supplement of paper PMC9663587
# What was measured:
# Flavopiridol [1] = compound: T1, CN1CC[C@H](c2c(O)cc(O)c3c(=O)cc(-c4ccccc4Cl)oc23)[C@H](O)C1 [Flavopiridol]; assay: increase in dead-cell fraction, 72 h; higher = more death;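 note: breast cancer cell lines in 384-well plates, stained with Hoechst plus LIVE/DEAD far red dye and imaged, cells above an LDR intensity threshold counted dead, Hoechst-negative corpses included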
# [2] = compound: CCN1CCN(Cc2ccc(Nc3ncc(F)c(-c4cc(F)c5nc(C)n(C(C)C)c5c4)n3)nc2)CC1; assay: as above
# THZ1 = compound: CN(C)C/C=C/C(=O)Nc1ccc(C(=O)Nc2cccc(Nc3ncc(Cl)c(-c4c[nH]c5ccccc45)n3)c2)cc1 [THZ1]; assay: GR value, 72 h; higher = faster growth (1 = untreated, <0 = killing);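 note: breast cancer and non-malignant breast epithelial lines, nine half-log doses, viable cells counted by Hoechst and LIVE/DEAD dye imaging versus time-zero plates and DMSO controls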
# Flavopiridol [3] = compound: T1, Flavopiridol; assay: as above
# YKL-5-124 = compound: C=CC(=O)Nc1ccc(C(=O)Nc2[nH]nc3c2CN(C(=O)N[C@H](CN(C)C)c2ccccc2)C3(C)C)cc1 [YKL-5-124]; assay: as above
# THZ531 = compound: CN(C)C/C=C/C(=O)Nc1ccc(C(=O)N2CCC[C@@H](Nc3ncc(Cl)c(-c4c[nH]c5ccccc45)n3)C2)cc1 [THZ531]; assay: as above
# LEE011/Ribociclib = compound: CN(C)C(=O)c1cc2cnc(Nc3ccc(N4CCNCC4)cn3)nc2n1C1CCCC1 [LEE011/Ribociclib]; assay: as above
# [4] = compound: CC(=O)c1c(C)c2cnc(Nc3ccc(N4CCNCC4)cn3)nc2n(C2CCCC2)c1=O; assay: as above
# Neratinib/HKI272 = compound: CCOc1cc2ncc(C#N)c(Nc3ccc(OCc4ccccn4)c(Cl)c3)c2cc1NC(=O)/C=C/CN(C)C [Neratinib/HKI272]; assay: as above
# BSJ-03-123 = compound: CC(=O)c1c(C)c2cnc(Nc3ccc(N4CCN(CCOCCOCCOCCNC(=O)COc5cccc6c5C(=O)N(C5CCC(=O)NC5=O)C6=O)CC4)cn3)nc2n(C2CCCC2)c1=O [BSJ-03-123]; assay: as above
# [5] = compound: CCc1cnn2c(NCc3ccc[n+]([O-])c3)cc(N3CCCC[C@H]3CCO)nc12; assay: as above
# [6] = compound: CCN1CCN(Cc2ccc(Nc3ncc(F)c(-c4cc(F)c5nc(C)n(C(C)C)c5c4)n3)nc2)CC1; assay: as above
cell line,measurement,setting,value
PDX1328,increase in dead-cell fraction,Flavopiridol [1]; 0.0001 µM,0.003
same,increase in dead-cell fraction,Flavopiridol [1]; 0.0003162 µM,-0.0035
same,increase in dead-cell fraction,Flavopiridol [1]; 0.001 µM,-0.0003
same,increase in dead-cell fraction,Flavopiridol [1]; 0.003162 µM,-0.0025
same,increase in dead-cell fraction,Flavopiridol [1]; 0.01 µM,-0.0027
same,increase in dead-cell fraction,Flavopiridol [1]; 0.03162 µM,-0.0044
same,increase in dead-cell fraction,Flavopiridol [1]; 0.1 µM,-0.0014
same,increase in dead-cell fraction,Flavopiridol [1]; 0.3162 µM,0.0342
same,increase in dead-cell fraction,Flavopiridol [1]; 1 µM,0.348
same,increase in dead-cell fraction,[2]; 0.001 µM,0.0018
same,increase in dead-cell fraction,[2]; 0.003162 µM,-0.0052
same,increase in dead-cell fraction,[2]; 0.01 µM,0.0039
same,increase in dead-cell fraction,[2]; 0.03162 µM,0.0167
same,increase in dead-cell fraction,[2]; 0.1 µM,0.0116
same,increase in dead-cell fraction,[2]; 0.3162 µM,0.0089
same,increase in dead-cell fraction,[2]; 1 µM,0.0192
same,increase in dead-cell fraction,[2]; 3.162 µM,0.029
same,increase in dead-cell fraction,[2]; 10 µM,0.475
same,GR value,THZ1; 0.0001 µM,0.984 GR
same,GR value,THZ1; 0.0003162 µM,1.06 GR
same,GR value,THZ1; 0.001 µM,1.11 GR
same,GR value,THZ1; 0.003162 µM,0.868 GR
same,GR value,THZ1; 0.01 µM,0.532 GR
same,GR value,THZ1; 0.03162 µM,-0.0495 GR
same,GR value,THZ1; 0.1 µM,-0.397 GR
same,GR value,THZ1; 0.3162 µM,-0.435 GR
same,GR value,THZ1; 1 µM,-0.711 GR
same,GR value,Flavopiridol [3]; 0.0001 µM,1.06 GR
same,GR value,Flavopiridol [3]; 0.0003162 µM,1.06 GR
same,GR value,Flavopiridol [3]; 0.001 µM,0.963 GR
same,GR value,Flavopiridol [3]; 0.003162 µM,0.955 GR
same,GR value,Flavopiridol [3]; 0.01 µM,1.01 GR
same,GR value,Flavopiridol [3]; 0.03162 µM,1.08 GR
same,GR value,Flavopiridol [3]; 0.1 µM,0.909 GR
same,GR value,Flavopiridol [3]; 0.3162 µM,0.239 GR
same,GR value,Flavopiridol [3]; 1 µM,-0.603 GR
same,GR value,YKL-5-124; 0.001 µM,0.525 GR
same,GR value,YKL-5-124; 0.003162 µM,0.572 GR
same,GR value,YKL-5-124; 0.01 µM,0.406 GR
same,GR value,YKL-5-124; 0.03162 µM,0.424 GR
same,GR value,YKL-5-124; 0.1 µM,0.45 GR
same,GR value,YKL-5-124; 0.3162 µM,0.301 GR
same,GR value,YKL-5-124; 1 µM,0.351 GR
same,GR value,YKL-5-124; 3.162 µM,0.295 GR
same,GR value,YKL-5-124; 10 µM,-0.0349 GR
same,GR value,THZ531; 0.0001 µM,0.957 GR
same,GR value,THZ531; 0.0003162 µM,0.973 GR
same,GR value,THZ531; 0.001 µM,0.939 GR
same,GR value,THZ531; 0.003162 µM,1.11 GR
same,GR value,THZ531; 0.01 µM,0.84 GR
same,GR value,THZ531; 0.03162 µM,0.788 GR
same,GR value,THZ531; 0.1 µM,0.153 GR
same,GR value,THZ531; 0.3162 µM,-0.45 GR
same,GR value,THZ531; 1 µM,-0.532 GR
same,GR value,LEE011/Ribociclib; 0.001 µM,0.927 GR
same,GR value,LEE011/Ribociclib; 0.003162 µM,0.816 GR
same,GR value,LEE011/Ribociclib; 0.01 µM,0.661 GR
same,GR value,LEE011/Ribociclib; 0.03162 µM,0.649 GR
same,GR value,LEE011/Ribociclib; 0.1 µM,0.481 GR
same,GR value,LEE011/Ribociclib; 0.3162 µM,0.514 GR
same,GR value,LEE011/Ribociclib; 1 µM,0.528 GR
same,GR value,LEE011/Ribociclib; 3.162 µM,0.394 GR
same,GR value,LEE011/Ribociclib; 10 µM,0.425 GR
same,GR value,[4]; 0.0003162 µM,1.04 GR
same,GR value,[4]; 0.001 µM,1.1 GR
same,GR value,[4]; 0.003162 µM,1.06 GR
same,GR value,[4]; 0.01 µM,0.938 GR
same,GR value,[4]; 0.03162 µM,0.751 GR
same,GR value,[4]; 0.1 µM,0.557 GR
same,GR value,[4]; 0.3162 µM,0.518 GR
same,GR value,[4]; 1 µM,0.414 GR
same,GR value,[4]; 3.162 µM,0.399 GR
same,GR value,Neratinib/HKI272; 0.0003162 µM,1.02 GR
same,GR value,Neratinib/HKI272; 0.001 µM,1.02 GR
same,GR value,Neratinib/HKI272; 0.003162 µM,1.01 GR
same,GR value,Neratinib/HKI272; 0.01 µM,0.898 GR
same,GR value,Neratinib/HKI272; 0.03162 µM,0.762 GR
same,GR value,Neratinib/HKI272; 0.1 µM,0.675 GR
same,GR value,Neratinib/HKI272; 0.3162 µM,0.537 GR
same,GR value,Neratinib/HKI272; 1 µM,0.223 GR
same,GR value,Neratinib/HKI272; 3.162 µM,0.0191 GR
same,GR value,BSJ-03-123; 0.001 µM,0.951 GR
same,GR value,BSJ-03-123; 0.003162 µM,0.816 GR
same,GR value,BSJ-03-123; 0.01 µM,0.819 GR
same,GR value,BSJ-03-123; 0.03162 µM,0.792 GR
same,GR value,BSJ-03-123; 0.1 µM,0.852 GR
same,GR value,BSJ-03-123; 0.3162 µM,0.646 GR
same,GR value,BSJ-03-123; 1 µM,0.479 GR
same,GR value,BSJ-03-123; 3.162 µM,0.531 GR
same,GR value,BSJ-03-123; 10 µM,0.0901 GR
same,GR value,[5]; 0.0001 µM,1.05 GR
same,GR value,[5]; 0.0003162 µM,1.11 GR
same,GR value,[5]; 0.001 µM,1.06 GR
same,GR value,[5]; 0.003162 µM,1.05 GR
same,GR value,[5]; 0.01 µM,0.907 GR
same,GR value,[5]; 0.03162 µM,-0.453 GR
same,GR value,[5]; 0.1 µM,-0.581 GR
same,GR value,[5]; 0.3162 µM,-0.571 GR
same,GR value,[5]; 1 µM,-0.53 GR
same,GR value,[6]; 0.001 µM,0.866 GR
same,GR value,[6]; 0.003162 µM,0.775 GR
same,GR value,[6]; 0.01 µM,0.537 GR
same,GR value,[6]; 0.03162 µM,0.323 GR
same,GR value,[6]; 0.1 µM,0.266 GR
same,GR value,[6]; 0.3162 µM,0.301 GR
same,GR value,[6]; 1 µM,0.263 GR
same,GR value,[6]; 3.162 µM,0.176 GR
same,GR value,[6]; 10 µM,-0.621 GR
